Laboratory results taken from PubChem BioAssay AID1918958 (Molecular Pharmacology Branch, DTP, NCI, 2023).

Tested on: NCI-H196 complex spheroid viability
Experiment: Anticancer human tumor NCI-H196 cell line growth inhibition [LSD1];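 also: spheroids exposed to agents for 7 days before readout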;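 as to viability, T/C: 100% = DMSO vehicle control viability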
Conditions: for IC50: curve of first compound; for viability, T/C: stronger effect = lower value
In short: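 Complex spheroids of tumor cells with HUVEC and human MSCs, exposed to iadademstat combined with other agents. Each agent tested in half-log steps from near clinical Cmax (else 10 microM top), DMSO ≤0.25%.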

CC[C@@]1(O)C(=O)OCc2c1cc1n(c2=O)Cc2cc3c(CN(C)C)c(O)ccc3nc2-1 + NC1CCC(NC2CC2c2ccccc2)CC1
IC50 (second compound 0.1 µM): > 100 nM
IC50 (second compound 0.316 µM): > 100 nM
IC50 (second compound 1 µM): > 100 nM
IC50 (second compound 3.16 µM): > 100 nM
IC50 (second compound 10 µM): > 100 nM
viability, T/C (second compound 0.1 µM, first compound 0.000316 µM): 96.8%
viability, T/C (second compound 0.1 µM, first compound 0.001 µM): 96.4%
viability, T/C (second compound 0.1 µM, first compound 0.00316 µM): 103%
viability, T/C (second compound 0.1 µM, first compound 0.01 µM): 107%
viability, T/C (second compound 0.1 µM, first compound 0.0316 µM): 115%
viability, T/C (second compound 0.1 µM, first compound 0.1 µM): 94.1%
viability, T/C (second compound 0.316 µM, first compound 0.000316 µM): 96%
viability, T/C (second compound 0.316 µM, first compound 0.001 µM): 90.2%
viability, T/C (second compound 0.316 µM, first compound 0.00316 µM): 105%
viability, T/C (second compound 0.316 µM, first compound 0.01 µM): 118%
viability, T/C (second compound 0.316 µM, first compound 0.0316 µM): 110%
viability, T/C (second compound 0.316 µM, first compound 0.1 µM): 101%
viability, T/C (second compound 1 µM, first compound 0.000316 µM): 89.7%
viability, T/C (second compound 1 µM, first compound 0.001 µM): 105%
viability, T/C (second compound 1 µM, first compound 0.00316 µM): 98.6%
viability, T/C (second compound 1 µM, first compound 0.01 µM): 101%
viability, T/C (second compound 1 µM, first compound 0.0316 µM): 98.4%
viability, T/C (second compound 1 µM, first compound 0.1 µM): 93.7%
viability, T/C (second compound 3.16 µM, first compound 0.000316 µM): 88.7%
viability, T/C (second compound 3.16 µM, first compound 0.001 µM): 95.3%
viability, T/C (second compound 3.16 µM, first compound 0.00316 µM): 91%
viability, T/C (second compound 3.16 µM, first compound 0.01 µM): 100%
viability, T/C (second compound 3.16 µM, first compound 0.0316 µM): 111%
viability, T/C (second compound 3.16 µM, first compound 0.1 µM): 102%
viability, T/C (second compound 10 µM, first compound 0.000316 µM): 94.6%
viability, T/C (second compound 10 µM, first compound 0.001 µM): 89.7%
viability, T/C (second compound 10 µM, first compound 0.00316 µM): 98%
viability, T/C (second compound 10 µM, first compound 0.01 µM): 109%
viability, T/C (second compound 10 µM, first compound 0.0316 µM): 105%
viability, T/C (second compound 10 µM, first compound 0.1 µM): 95.3%

CCc1c2c(nc3ccc(O)cc13)-c1cc3c(c(=O)n1C2)COC(=O)[C@]3(O)CC + NC1CCC(NC2CC2c2ccccc2)CC1
IC50 (second compound 0.1 µM): 10 nM
IC50 (second compound 0.316 µM): 9.56 nM
IC50 (second compound 1 µM): 11 nM
IC50 (second compound 3.16 µM): 10.1 nM
IC50 (second compound 10 µM): 11.4 nM
viability, T/C (second compound 0.1 µM, first compound 0.000949 µM): 113%
viability, T/C (second compound 0.1 µM, first compound 0.003 µM): 104%
viability, T/C (second compound 0.1 µM, first compound 0.00949 µM): 52.8%
viability, T/C (second compound 0.1 µM, first compound 0.03 µM): 3.31%
viability, T/C (second compound 0.1 µM, first compound 0.0949 µM): 0.73%
viability, T/C (second compound 0.1 µM, first compound 0.3 µM): 1.14%
viability, T/C (second compound 0.316 µM, first compound 0.000949 µM): 123%
viability, T/C (second compound 0.316 µM, first compound 0.003 µM): 104%
viability, T/C (second compound 0.316 µM, first compound 0.00949 µM): 52.5%
viability, T/C (second compound 0.316 µM, first compound 0.03 µM): 3.77%
viability, T/C (second compound 0.316 µM, first compound 0.0949 µM): 1.18%
viability, T/C (second compound 0.316 µM, first compound 0.3 µM): 0.82%
viability, T/C (second compound 1 µM, first compound 0.000949 µM): 120%
viability, T/C (second compound 1 µM, first compound 0.003 µM): 111%
viability, T/C (second compound 1 µM, first compound 0.00949 µM): 57.1%
viability, T/C (second compound 1 µM, first compound 0.03 µM): 2.51%
viability, T/C (second compound 1 µM, first compound 0.0949 µM): 0.62%
viability, T/C (second compound 1 µM, first compound 0.3 µM): 0.86%
viability, T/C (second compound 3.16 µM, first compound 0.000949 µM): 109%
viability, T/C (second compound 3.16 µM, first compound 0.003 µM): 91.2%
viability, T/C (second compound 3.16 µM, first compound 0.00949 µM): 55.3%
viability, T/C (second compound 3.16 µM, first compound 0.03 µM): 2%
viability, T/C (second compound 3.16 µM, first compound 0.0949 µM): 0.56%
viability, T/C (second compound 3.16 µM, first compound 0.3 µM): 1.03%
viability, T/C (second compound 10 µM, first compound 0.000949 µM): 113%
viability, T/C (second compound 10 µM, first compound 0.003 µM): 98.7%
viability, T/C (second compound 10 µM, first compound 0.00949 µM): 60.1%
viability, T/C (second compound 10 µM, first compound 0.03 µM): 3.63%
viability, T/C (second compound 10 µM, first compound 0.0949 µM): 0.8%
viability, T/C (second compound 10 µM, first compound 0.3 µM): 0.85%
